Data on one compound can be found in US20230210834A1, “RNA METHYLTRANSFERASE INHIBITOR, SCREENING METHOD THEREFOR, ANTI-CANCER AGENT EFFICACY ASSESSMENT MARKER, AND KIT FOR EFFECTIVELY PREDICTING FTSJ1 INHIBITOR” (National University Corporation Okayama University, priority 2019, published 2023).

The test system of one series is MGG4. As to the kind of experiment: Sphere-forming ability (anchorage-independent cell proliferation), MGG4. Format: cell-based, human. As to conditions: MGG4 (high FTSJ1 expression), 1 week, 0-5000 nM; FIG. 4B. As to the method:
(§1) To verify whether the expression analysis of these gene clusters contributes to predicting the anti-cancer effect by the FTSJ1 inhibitors, the FTSJ1 gene was actually used as an example to analyze the anti-cancer effect of the FTSJ1 inhibitor PVZF2001 on human malignant brain tumor cell lines. Human malignant brain tumor cell lines MGG4, MGG8, MGG18, MGG23 were treated with stem cell medium (Neurobasal, B-27, N-2, 20 ng/mL EGF, 20 ng/mL bFGF) containing different concentrations (0 nm, 200 nM, 500 nM, 1000 NM, 2000 NM, 5000 nM) of PVZF2001 for 1 week, and anchorage-independent cell proliferation was evaluated based on sphere-forming ability.

The subject of series [1] is triple-negative breast cancer cell line MDA-MB-231. The series can be described thus: Anti-tumor effect evaluation test in MDA-MB-231 tumor model mice. As to conditions: 20 mg/kg intraperitoneally every other day in corn oil; FIG. 1 and 2. It is filed as in vivo, immunodeficient mice (BALB/c-nu/nu). As to the method: (§2) A cell suspension (1×10^6 cells/100 μL), in which triple-negative breast cancer cell line MDA-MB-231 was suspended in phosphate buffer (PBS, produced by FUJIFILM Wako Pure Chemical Corporation), was inoculated subcutaneously in the dorsal lumbar region of immunodeficient mice (BALB/c-nu/nu, female, 6 weeks old, purchased from Shimizu Laboratory Supplies Co., Ltd.) using a syringe with a 23 G injection needle (Terumo Corporation). After confirming that the cancer cells engrafted under the skin of the mice to form tumor tissues, and that the tumor volume reached 100 mm^3, the obtained tumor model mice were used for the following evaluation test. First, each compound for evaluation was dissolved in corn oil (produced by Sigma-Aldrich Co., LLC) and administered intraperitoneally. PVZF0024 was administered at 100 mg/kg and PVZF2001 was administered at 20 mg/kg to the tumor model mice every other day. At each administration, the tumor diameter was measured with a caliper. The tumor volume was calculated according to the following formula: V=(3.14×D×d^2)/6 (wherein V is the tumor volume, D is the tumor major axis, and d is the tumor minor axis) (Wu. et al., Clin. Cancer Res., 2013 Oct. 15; 19(20): 5699-5710).

The nature of series [2]: Body weight in the anti-tumor effect evaluation test. As to conditions: 20 mg/kg intraperitoneally every other day. It is filed as in vivo, immunodeficient mice (BALB/c-nu/nu). As to the method: as §2
FIGS. 1 and 2 show the antitumor effects of PVZF0024 and PVZF2001.

The next series deals with MGG18. As to the kind of experiment: Sphere-forming ability (anchorage-independent cell proliferation), MGG18. It is filed as cell-based, human. The settings on record: MGG18 (high FTSJ1 expression), 1 week, 0-5000 nM; FIG. 4B. As to the method:
as §1

A further series concerns the target T1, FTSJ1 (Homo sapiens, UniProt Q9UET6).
T1 construct: made in house; host or cells: HEK293 cells stably expressing FLAG-tagged FTSJ1
T1 sequence (Q9UET6 1-329): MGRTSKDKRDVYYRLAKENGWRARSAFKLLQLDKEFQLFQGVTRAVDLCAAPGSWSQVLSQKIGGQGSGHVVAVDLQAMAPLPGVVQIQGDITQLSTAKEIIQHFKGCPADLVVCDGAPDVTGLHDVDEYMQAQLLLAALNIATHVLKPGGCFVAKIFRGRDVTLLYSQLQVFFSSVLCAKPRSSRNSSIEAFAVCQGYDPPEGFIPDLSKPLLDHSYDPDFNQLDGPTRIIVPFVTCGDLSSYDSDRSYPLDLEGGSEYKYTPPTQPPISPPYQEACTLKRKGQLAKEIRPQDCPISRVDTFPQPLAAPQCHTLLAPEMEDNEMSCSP
The series can be described thus: Screening test: FLAG-FTSJ1 transmethylation of total RNA, SAM to SAH conversion measured with MTase-Glo luminescence. As to conditions: 10 ng/reaction FLAG-FTSJ1, 1,000 ng/reaction total RNA, different concentrations; FIG. 3B. It is filed as biochemical. As to the method: HEK293 human embryonic kidney cells that constantly express FLAG-tagged FTSJ1 were produced, and from its cell lysate, FLAG-FTSJ1 was separated by adsorption using an anti-FLAG M2 antibody affinity gel (Sigma-Aldrich Co. LLC, catalog number: A2220-10ML), and eluted with FLAG peptide (Sigma-Aldrich Co. LLC, catalog number: F3290-25MG). After measuring the protein concentration in the eluate, serial dilutions were performed within the range of 0 to 20 ng/reaction to obtain enzyme dilutions of 12 different concentrations. Further, the total RNA was extracted from HEK293-FTSJ1-KO cells, in which FTSJ1 was knocked out, using TRIzol Reagent (Thermo Fisher Scientific Inc., catalog number: 15596018). […] The conversion reaction from SAM (s-adenosyl methionine) to SAH (s-adenosyl homocysteine), which occurred when FLAG-FTSJ1 in each dilution methylated 1,000 ng/reaction of the total RNA, was measured as a luciferase luminescence value using MTase-Glo Reagent in the assay kit. Taking the luminescence value at the time when FLAG-FTSJ1 was 0 ng as a background value, a graph was drawn using the numerical values obtained by subtracting the background value from the luminescence value at each dilution step. […]

`CC(C)c1cc(C(C)C)c(S(=O)(=O)CC2CC(C)(C)CC(C)(C)C2)c(C(C)C)c1` [PVZF2001]: the “anchorage-independent cell proliferation (sphere-forming ability)” value with MGG4 and with MGG18 was “showed proliferation inhibition at low concentrations” throughout. In addition, the “antitumor effect (tumor growth, tumor volume)” value in series [1] is recorded as “significantly inhibit tumor growth”. The “weight loss due to administration” value in series [2] was “no weight loss due to administration was observed”. The “inhibitory effect of transmethylation by FTSJ1 (luminescence value)” value against FTSJ1 is given as “a decrease in the luminescence value was observed in a concentration-dependent manner”.
